We go through one molecule from patent publication US10052340B2 (XIAMEN UNIVERSITY, priority 2012, dated 2018).

One test addresses T1, FXR F284H (Homo sapiens, UniProt Q96RI1, F298H).
T1 construct: the expression plasmid expressing full-length FXR (wt) or with mutations at the corresponding sites; expressed in transfected cells; host or cells: COS-7
The test is described as follows: Reporter gene analysis with FXR point mutant F284H in COS-7 cells. The conditions noted are these: COS-7, EcRE reporter, FIG. 5. Format: cell-based. On the procedure: (§1) (2) The expression vector of FXR with point mutations at key binding sites is obtained. Quick-Change site-directed mutagenesis kit (Stratagene) is used for mutation, and the mutation reaction system is as follows: wild-type plasmid pCMX-FXR (50 ng) of 0.5 μl, mutation primer (100 μM) of 0.2 μl, pfu DNA polymerase (Invitrogen) (2 U) of 1 μl, 10 mM dNTPs of 1 μl, 10× PCR buffer of 5 μl, and ddH2O of 43 μl. PCR procedures are performed as follows: 94° C. for 2 min; 94° C. for 30 s, 55° C. for 1 min, 72° C. for 7 min, 15 cycles. 20 μl PCR product is digested with Dpn I […], followed by taking and transforming 2 μl digestion product into E. coli Trans 109 competent cells, ice bath for 30 min, and heat shock at 42° C. for 30 s. 250 μl of LB liquid medium without antibiotics is added, and preshaken at 225 rpm at 37° C. for 40 min, followed by taking 150 μl of products, spreading same on LB solid medium plates with ampicillin at 100 μg/ml and culturing them at 37° C. overnight. On the next day, the single colony is picked out and placed in 2 ml LB liquid medium containing ampicillin at 100 μg/ml, and cultured at 37° C. overnight. Plasmid extraction is performed on the shaken bacterial solution using Qiagen MiniPrep Plasmid Minipreparation Kit. The plasmid is identified by sequencing.

The next test has as its target T2, FXR H447F (Homo sapiens, UniProt Q96RI1, H461F).
T2 construct: the expression plasmid expressing full-length FXR (wt) or with mutations at the corresponding sites; expressed in transfected cells; host or cells: COS-7
T2 sequence (Q96RI1 1-472 isoform Q96RI1-2 H447F): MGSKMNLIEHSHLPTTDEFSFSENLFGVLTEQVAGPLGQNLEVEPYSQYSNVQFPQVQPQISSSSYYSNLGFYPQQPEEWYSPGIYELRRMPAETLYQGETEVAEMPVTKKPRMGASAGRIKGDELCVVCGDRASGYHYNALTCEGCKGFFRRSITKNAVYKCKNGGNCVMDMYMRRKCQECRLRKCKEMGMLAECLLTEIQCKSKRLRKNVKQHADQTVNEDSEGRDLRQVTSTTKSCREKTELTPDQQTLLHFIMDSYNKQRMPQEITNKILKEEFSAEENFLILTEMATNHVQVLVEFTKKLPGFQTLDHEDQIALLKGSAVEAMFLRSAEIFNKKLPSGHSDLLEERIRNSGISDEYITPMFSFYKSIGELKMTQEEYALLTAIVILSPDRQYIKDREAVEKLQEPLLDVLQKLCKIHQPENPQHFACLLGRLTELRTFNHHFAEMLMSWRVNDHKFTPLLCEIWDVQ
Put plainly: Reporter gene analysis with FXR point mutant H447F in COS-7 cells. Format: cell-based. The conditions noted are these: COS-7, EcRE reporter, vs wild-type FXR, FIG. 5. How it is done:
as §1
Background: In a reporter assay the amount or activity of a reporter protein is the signal.

The subject of test [1] is FXR gene deletion homozygous mice (FXR−/−). The test is described as follows: Mouse trial, FXR knockout mice fed with high-fat diet. The test is classed as in vivo. The conditions noted are these: 1.3 mg/kg i.p. daily, 14 days. On the procedure: Wild-type C57BL/6J mice of 9-10 weeks old, and FXR gene deletion homozygous mice (FXR^−/−) and diabetes and obesity mouse model mice (KK-Ay) with the same background are used, fed with high-fat diet (Research Diets, D12492), with free access to water, in SPF grade animal room in experimental animal center, Xiamen University. […] Intraperitoneal injection is performed one time at 9 o'clock every morning, continued for 14 days, and the mice are measured for body weight and the food intake every two days. At the end of 14 days, the mice are provided with free access to water, and after being hungry for 6 h, the mouse body weights are measured, and the percentage of the final body weight relative to the initial body weight before the treatment of the injection trial indicates the change of mouse body weight. Then blood is sampled from the eye balls, and sera are obtained by separation. The components in serum are detected by the following kits respectively: sugar-oxidase method (Beijing Applygen); insulin (Crystal Chem. Inc., USA); total cholesterol and cholesterol in high and low density lipoprotein (Bioassay Systems, USA); triglyceride (Beijing Applygen and WAKO Chemicals Inc., Japan); free fatty acids (Bioassay Systems, USA); and aspartate aminotransferase and alanine aminotransferase (Biosino Bio-technology and Science Inc., Beijing, China). Mouse liver is taken, a part of which is fixed with paraformaldehyde, and embedded with paraffin, sectioned, and stained with hematoxylin and eosin, and a part of which is cryopreserved with liquid nitrogen for use in extracting RNA for measuring gene expression with fluorescence quantitative PCR.

Test [2] deals with FXR targeting genes and genes associated with the saccharide, triglyceride and cholesterol metabolism. The test is described as follows: Fluorescence quantitative PCR of liver gene expression in treated wild-type mice. The test is classed as in vivo. The conditions noted are these: wild-type mouse liver, real-time PCR, FIG. 13. On the procedure:
Total RNA is extracted from the tissues using an RNA extraction kit (Omega Bio-Tek, GA). TAKARA reverse transcription kit is used for the reverse transcription, and fluorescence quantitative PCR is performed with CFX™ 96 (BIO-RAD) real-time monitoring system using SYBR green fluorescent dye so as to analyze the gene expression level. The expression level of Actin gene is used as the internal reference for the results. The reaction system comprises SYBR Premix Ex Taq (2×) of 12.5 μl, PCR forward primer (10 μM) of 1 μl, PCR reverse primer (10 μM) of 1 μl, cDNA template of 2 μl, and sterilized distilled water of 8.5 μl, 25 μl in total. The two-step amplification PCR procedures are as follows: pre-denaturation at 95° C. for 30 s, PCR reaction at 95° C. for 5 s, and 60° C. for 40 s. 40 cycles.
The expression of genes associated with saccharides, lipids, and cholesterol metabolism in mouse liver treated with ligand medicaments is detected by fluorescent quantitative real-time PCR.
In general terms: Quantitative PCR measures a nucleic acid by following its amplification.

The subject of test [3] is wild-type mouse liver cells. Put plainly: LPS induced inflammatory gene expression in wild-type mouse liver cells. Format: cell-based. The conditions noted are these: FIG. 19. From the text:
(§2) Ivermectin and LPS are used to treat wild-type and FXR knockout mouse liver cells.

Test [4] relates to FXR knockout mouse liver cells. Put plainly: LPS induced inflammatory gene expression in FXR knockout mouse liver cells. The test is classed as cell-based.
Text: as §2

SMILES strings stand for the structures.

T1 sequence (Q96RI1 1-472 isoform Q96RI1-2 F284H): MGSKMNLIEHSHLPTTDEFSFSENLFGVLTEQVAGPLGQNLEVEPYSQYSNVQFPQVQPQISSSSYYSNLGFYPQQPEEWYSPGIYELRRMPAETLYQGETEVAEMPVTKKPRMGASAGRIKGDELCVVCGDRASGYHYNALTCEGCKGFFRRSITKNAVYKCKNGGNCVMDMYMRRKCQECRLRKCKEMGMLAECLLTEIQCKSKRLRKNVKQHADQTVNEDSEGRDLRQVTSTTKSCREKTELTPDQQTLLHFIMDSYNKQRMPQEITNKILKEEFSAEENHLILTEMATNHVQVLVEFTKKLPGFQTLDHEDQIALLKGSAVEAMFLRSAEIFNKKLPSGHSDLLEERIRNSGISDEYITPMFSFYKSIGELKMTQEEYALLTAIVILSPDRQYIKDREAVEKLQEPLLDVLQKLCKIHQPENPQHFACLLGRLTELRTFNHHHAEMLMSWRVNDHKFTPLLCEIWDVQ

`CC[C@H](C)[C@H]1O[C@]2(CC[C@@H]1C)C[C@@H]1C[C@@H](C/C=C(\C)C(O[C@H]3C[C@H](OC)C(O[C@H]4C[C@H](OC)[C@@H](O)[C@H](C)O4)[C@H](C)O3)[C@@H](C)/C=C/C=C3\CO[C@@H]4[C@H](O)C(C)=CC(C(=O)O1)[C@]34O)O2` (stereo partly shown) [ivermectin]: the “transcriptional activity of FXR mutant F284H” value at FXR F284H is “incapable of activating the transcriptional activity of FXR”. In addition, the “transcriptional activity of FXR mutant H447F” value on FXR H447F is on record as “significantly increasing”. Besides, in test [1], the serum cholesterol level result is “not producing any significant change”, the serum glucose level result is on record as “not producing any significant change” and the serum insulin level result is “does not produce any significant change”. Besides, in test [1] (FIG. 8), the “cholesterol in high density lipoprotein” value is “not affected” and the “cholesterol in low density/very low density lipoprotein” value is recorded as “not affected”. Further, the “expression of genes associated with saccharides, lipids and cholesterol metabolism in liver” value in test [2] was “can regulate the expression of genes associated with metabolism”. Also, in test [3], the “expression of IL-6 induced by LPS” value is on record as “clearly inhibit”, the “expression of MIP-1a induced by LPS” value is on record as “clearly inhibit”, the “expression of TNFa induced by LPS” value is “clearly inhibit” and the “expression of iNOS induced by LPS” value is on record as “clearly inhibit”. Further, the “expression of inflammatory factors induced by LPS” value in test [4] is on record as “no clear change”.
